Assays:
Assay in all cases: Post-emergence efficacy of compounds of Formula (I) (B1), glasshouse
Assay type in all cases: in vivo
[1] = system: Euphorbia heterophylla (EPHHL); details: Application Rate 500 g/Ha, evaluated after 13 days; for pest or weed control at 500 g/ha: Euphorbia heterophylla, post-emergence, 312 h, read-out: Control of EPHHL after post-emergence application (100=total damage to plant; 0=no damage to plant)
Procedure: (§1) Seeds of a variety of test species were sown in standard Iaom-based soil in pots:— Ipomoea hederacea (IPOHE), Euphorbia heterophylla (EPHHL), Chenopodium album (CHEAL), Amaranthus palmeri (AMAPA), Lolium perenne (LOLPE), Digitaria sanguinalis (DIGSA), Eleusine indica (ELEIN), Echinochloa crus-galli (ECHCG), Setaria faberi (SETFA). After cultivation for 14 days (post-emergence) under controlled conditions in a glasshouse (at 24/16° C., day/night; 14 hours light; 65% humidity), the plants were sprayed with an aqueous spray solution derived from the dissolution of the technical active ingredient Formula (I) in a small amount of acetone and a special solvent and emulsifier mixture referred to as IF50 (11.12% Emulsogen EL360 TM+44.44% N-methylpyrrolidone+44.44% Dowanol DPM glycol ether), to create a 50 g/I solution which was then diluted to required concentration using 0.25% or 1% Empicol ESC70 (Sodium lauryl ether sulphate)+1% ammonium sulphate as diluent. The delivery of the aqueous spray solution was via a laboratory track sprayer which delivered the aqueous spray composition at a rate of 200 litres per hectare, using a flat fan nozzle (Teejet 11002VS) and an application volume of 200 litre/ha (at 2 bar).
(§2) The test plants were then grown in a glasshouse under controlled conditions (at 24/16° C., day/night; 14 hours light; 65% humidity) and watered twice daily. After 13 days the test was evaluated (100=total damage to plant; 0=no damage to plant).

[2] = system: Eleusine indica (ELEIN); details: Application Rate 500 g/Ha, evaluated after 13 days; for pest or weed control at 500 g/ha: Eleusine indica, post-emergence, 312 h, read-out: Control of ELEIN after post-emergence application (100=total damage to plant; 0=no damage to plant)
Procedure: as §1, §2

[3] = system: Chenopodium album (CHEAL); details: Application Rate 500 g/Ha, evaluated after 13 days; for pest or weed control at 500 g/ha: Chenopodium album, post-emergence, 312 h, read-out: Control of CHEAL after post-emergence application (100=total damage to plant; 0=no damage to plant)
Procedure: as §1, §2

[4] = system: Amaranthus palmeri (AMAPA); details: Application Rate 500 g/Ha, evaluated after 13 days; for pest or weed control at 500 g/ha: Amaranthus palmeri, post-emergence, 312 h, read-out: Control of AMAPA after post-emergence application (100=total damage to plant; 0=no damage to plant)
Procedure: as §1, §2

[5] = system: Setaria faberi (SETFA); details: Application Rate 500 g/Ha, evaluated after 13 days; for pest or weed control at 500 g/ha: Setaria faberi, post-emergence, 312 h, read-out: Control of SETFA after post-emergence application (100=total damage to plant; 0=no damage to plant)
Procedure: as §1, §2

[6] = system: Ipomoea hederacea (IPOHE); details: Application Rate 500 g/Ha, evaluated after 13 days; for pest or weed control at 500 g/ha: Ipomoea hederacea, post-emergence, 312 h, read-out: Control of IPOHE after post-emergence application (100=total damage to plant; 0=no damage to plant)
Procedure: as §1, §2

[7] = system: Echinochloa crus-galli (ECHCG); details: Application Rate 500 g/Ha, evaluated after 13 days; for pest or weed control at 500 g/ha: Echinochloa crus-galli, post-emergence, 312 h, read-out: Control of ECHCG after post-emergence application (100=total damage to plant; 0=no damage to plant)
Procedure: as §1, §2

[8] = system: Lolium perenne (LOLPE); details: Application Rate 500 g/Ha, evaluated after 13 days; for pest or weed control at 500 g/ha: Lolium perenne, post-emergence, 312 h, read-out: Control of LOLPE after post-emergence application (100=total damage to plant; 0=no damage to plant)
Procedure: as §1, §2

[9] = system: Digitaria sanguinalis (DIGSA); details: Application Rate 500 g/Ha, evaluated after 13 days; for pest or weed control at 500 g/ha: Digitaria sanguinalis, post-emergence, 312 h, read-out: Control of DIGSA after post-emergence application (100=total damage to plant; 0=no damage to plant)
Procedure: as §1, §2

Structure (SMILES)	Control of EPHHL after post-emergence application (100=total damage to plant; 0=no damage to plant) [1]	Control of ELEIN after post-emergence application (100=total damage to plant; 0=no damage to plant) [2]	Control of CHEAL after post-emergence application (100=total damage to plant; 0=no damage to plant) [3]	pest or weed control at 500 g/ha [4]	Control of SETFA after post-emergence application (100=total damage to plant; 0=no damage to plant) [5]	Control of IPOHE after post-emergence application (100=total damage to plant; 0=no damage to plant) [6]	Control of ECHCG after post-emergence application (100=total damage to plant; 0=no damage to plant) [7]	pest or weed control at 500 g/ha [8]	Control of DIGSA after post-emergence application (100=total damage to plant; 0=no damage to plant) [9]	pest or weed control at 500 g/ha [1]	pest or weed control at 500 g/ha [2]	pest or weed control at 500 g/ha [3]	pest or weed control at 500 g/ha [5]	pest or weed control at 500 g/ha [6]	pest or weed control at 500 g/ha [7]	pest or weed control at 500 g/ha [9]	Control of AMAPA after post-emergence application (100=total damage to plant; 0=no damage to plant) [4]	Control of LOLPE after post-emergence application (100=total damage to plant; 0=no damage to plant) [8]
O=C(O)CC[n+]1ccc(-c2ncccn2)cn1.[Br-] [Compound 1.021, 3-(4-pyrimidin-2-ylpyridazin-1-ium-1-yl)propanoic acid bromide]	100	100	100	100%	100	100	100	70%	100									
COC(=O)CC[n+]1ccc(-c2cnccn2)cn1 [Compound 1.013, methyl 3-(4-pyrazin-2-ylpyridazin-1-ium-1-yl)propanoate chloride]				100%				70%		100%	100%	90%	100%	80%	80%	100%		
O=S(=O)(O)CC[n+]1ccc(-c2cnccn2)cn1 [Compound 1.004]				100%				60%		100%	100%	100%	90%	60%	80%	100%		
O=S(=O)([O-])CC[n+]1ccc(-c2cccnn2)cn1 [Compound 1.002, 2-(4-pyridazin-3-ylpyridazin-1-ium-1-yl)ethanesulfonate]	100	100	100		90	40	100		100								100	100
N[C@@H](CCC[n+]1ccc(-c2ncccn2)cn1)C(=O)O [Compound 1.030, [(1S)-1-carboxy-4-(4-pyrimidin-2-ylpyridazin-1-ium-1-yl)butyl]-ammonium dichloride]				100%				60%		100%	90%	100%	100%	60%	100%	100%		
CC(C[n+]1ccc(-c2ncccn2)cn1)S(=O)(=O)[O-] (stereo not drawn) [Compound 1.026, 1-(4-pyrimidin-2-ylpyridazin-1-ium-1-yl)propane-2-sulfonate]				100%				80%		90%	100%	80%	100%	70%	80%	100%		
O=C(CC[n+]1ccc(-c2ncccn2)cn1)OCc1ccccc1 [Compound 1.018]				90%				40%		100%	100%	90%	100%	30%	80%	100%		

Reference: patent US20220095618A1, “HERBICIDAL COMPOSITIONS” (SYNGENTA CROP PROTECTION AG, priority 2019, published 2022)
